This note sets out measurements from ChEMBL document CHEMBL5316350, “Novel Pyrido[2',1':2,3]imidazo[4,5-c]quinoline Derivative Selectively Poisons Leishmania donovani Bisubunit Topoisomerase 1 to Inhibit the Antimony-Resistant Leishmania Infection in Vivo” (J Med Chem, 2023).

Calls of active or inactive are those of the source. The rule behind the calls is not given here.

Data set [1] concerns the target T1, DNA topoisomerase I (Leishmania donovani (strain BPK282A1)) (UniProt E9BRC0).
T1 sequence (whole entry): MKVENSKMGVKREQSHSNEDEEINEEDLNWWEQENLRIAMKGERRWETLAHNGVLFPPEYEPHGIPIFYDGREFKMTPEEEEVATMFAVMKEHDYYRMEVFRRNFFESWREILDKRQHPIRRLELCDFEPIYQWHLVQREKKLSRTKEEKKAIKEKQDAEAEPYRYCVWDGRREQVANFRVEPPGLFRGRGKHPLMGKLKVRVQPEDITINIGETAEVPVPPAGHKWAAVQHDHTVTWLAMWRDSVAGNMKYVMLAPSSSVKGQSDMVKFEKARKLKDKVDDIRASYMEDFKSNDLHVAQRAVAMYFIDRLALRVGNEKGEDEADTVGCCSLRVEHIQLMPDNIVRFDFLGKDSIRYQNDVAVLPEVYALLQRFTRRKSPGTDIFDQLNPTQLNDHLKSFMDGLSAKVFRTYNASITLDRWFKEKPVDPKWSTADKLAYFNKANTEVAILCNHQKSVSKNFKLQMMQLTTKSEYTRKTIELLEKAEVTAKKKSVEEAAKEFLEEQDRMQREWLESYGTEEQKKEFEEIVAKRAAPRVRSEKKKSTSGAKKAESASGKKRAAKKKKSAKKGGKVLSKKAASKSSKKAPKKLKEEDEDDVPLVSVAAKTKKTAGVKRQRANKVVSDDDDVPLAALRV
Put plainly: Inhibition of recombinant Top1 in Leishmania donovani Ag83 whole cell extract preincubated with compound for 5 mins followed by plasmid DNA addition at 5 to 20 uM measured after 30 mins. The conditions noted are these: dose 5-20 µM.

The target in data set [2] is T1, DNA topoisomerase I (Leishmania donovani (strain BPK282A1)). Put plainly: (§1) Inhibition of recombinant Top1 in Antimony resistant Leishmania donovani BHU575 whole cell extract assessed as relaxation of supercoiled pBluescript SK(+) DNA measured by agarose gel electrophoresis analysis. The conditions noted are these: dose 5-50 µM.
Data set [3] concerns the target T2, DNA topoisomerase I (Leishmania donovani (strain BPK282A1), UniProt E9BRC0).
T2 sequence (E9BRC0 whole entry): T1 sequence (whole entry)
The description is as §1.

Data set [4] relates to Leishmania donovani. Nature of the data set: Induction of cell cycle arrest in Leishmania donovani Ag83 promastigotes assessed as decrease in accumulation of cells in S phase at 5 uM measured after 6 hrs by PI staining based flow cytometry (reference value: 18.1%). The data set is classed as functional. On the set-up: scale not given: the % may be the effect or the level left. (In general: A flow cytometer gives signals particle by particle.)

Data set [5] relates to Leishmania donovani. Nature of the data set: Induction of cell cycle arrest in antimony resistant Leishmania donovani BHU575 promastigotes assessed as decrease in accumulation of cells in G0/G1 phase at 5 uM measured after 24 hrs by PI staining based flow cytometry (reference value: 80.7%). It is filed as functional. On the set-up: scale not given: the % may be the effect or the level left.

In data set [6] the test system is Leishmania donovani. Put plainly: Antileishmanial activity in Leishmania donovani BHU575 promastigotes assessed as TUNEL positive cells at 5 uM measured after 12 hrs by confocal microscopic analysis relative to control. The data set is classed as functional.
Data set [7] addresses T2, DNA topoisomerase I. Nature of the data set: Inhibition of recombinant Top1 in Leishmania donovani Ag83 whole cell extract assessed as relaxation of supercoiled pBluescript SK(+) DNA measured by agarose gel electrophoresis analysis.
Data set [8] relates to Leishmania donovani. Put plainly: Antileishmanial activity against Leishmania donovani Ag83 promastigotes infected in BALB/c mouse model of visceral leishmaniasis assessed as fold change in T-helper type 1 immunological evoke response in splenocytes by measuring increased IFN-gamma cytokine level treated after 3 weeks of infection at 10 mg/kg, ip twice a week for 3 weeks by RT-PCR analysis. The data set is classed as functional.

The target of data set [9] is T1, DNA topoisomerase I (Leishmania donovani (strain BPK282A1)). Nature of the data set: Binding affinity to Leishmania donovani topoisomerase I assessed as DNA intercalation by measuring dislodging of bound fluorophore at 200 uM by EtBr displacement assay.
For data set [10], the system named is Leishmania donovani. Put plainly: Antileishmanial activity against antimony resistant Leishmania donovani BHU575 promastigotes infected in BALB/c mouse assessed as reduction of amastigote burden in liver treated after 3 weeks of infection at 5 to 10 mg/kg, ip twice a week for 3 weeks by Giemsa staining stamp-smear based limiting dilution assay. The data set is classed as functional, organism-based. The conditions noted are these: dose 5-10 mg/kg.

Data set [11] is described as follows: Toxicity in BALB/c mouse infected with Leishmania donovani Ag83 promastigotes assessed as change in body weight treated after 3 weeks of infection at 5 to 10 mg/kg, ip twice a week for 3 weeks. The conditions noted are these: in vivo, dose 5-10 mg/kg. The data set is classed as organism-based.
The test system of data set [12] is Leishmania donovani. Put plainly: Induction of apoptosis in Leishmania donovani Ag83 promastigotes assessed as DNA break accumulation measured at 5 uM after 15 mins by TUNEL staining based assay. The data set is classed as functional, organism-based.
Data set [13] relates to Leishmania donovani. Put plainly: Antileishmanial activity against Leishmania donovani Ag83 promastigotes infected in BALB/c mouse model of visceral leishmaniasis assessed as T-helper type 2 immunological evoke response in splenocytes by measuring decrease in IL-4 level treated after 3 weeks of infection at 5 to 10 mg/kg, ip twice a week for 3 weeks by RT-PCR analysis. It is filed as functional, organism-based. The conditions noted are these: dose 5-10 mg/kg.

In data set [14] the target is T2, DNA topoisomerase I. Put plainly: Inhibition of Leishmania donovani Top1 assessed as relaxation of supercoiled pBluescript SK(+) DNA measured by agarose gel electrophoresis analysis.
Data set [15] relates to Leishmania donovani. Put plainly: Induction of apoptosis in Leishmania donovani Ag83 promastigotes assessed as early apoptotic cells measured at 5 uM after 12 hrs by Annexin V-FITC/PI staining based flow cytometric analysis (reference value: 0.00%). It is filed as functional.
The test system of data set [16] is Leishmania donovani. Put plainly: Induction of cell cycle arrest in antimony resistant Leishmania donovani BHU575 promastigotes assessed as decrease in accumulation of cells in G2/M phase at 5 uM measured after 12 hrs by PI staining based flow cytometry (reference value: 8.8%). It is filed as functional. On the set-up: scale not given: the % may be the effect or the level left.

Data set [17] concerns the target T1, DNA topoisomerase I (Leishmania donovani (strain BPK282A1)). Put plainly: Inhibition of recombinant Top1 in Leishmania donovani Ag83 whole cell extract assessed as relaxation of supercoiled pBluescript SK(+) DNA at 10 uM incubated for 30 mins by agarose gel electrophoresis analysis relative to control.
Data set [18] relates to Leishmania donovani. Put plainly: Induction of apoptosis in antimony resistant Leishmania donovani BHU575 promastigotes at 5 uM measured after 6 to 24 hrs by FITC-Annexin V-based flow cytometric analysis. It is filed as functional, organism-based. The conditions noted are these: time 6-24 hrs.
Data set [19] concerns the target T1, DNA topoisomerase I (Leishmania donovani (strain BPK282A1)). Nature of the data set: Binding affinity to Leishmania donovani recombinant topoisomerase I assessed as stabilization of cleavage complex at 2.5 to 25 uM measured after 30 mins. The conditions noted are these: dose 2.5-25 µM.
Data set [20] has the same target. Put plainly: Binding affinity to antimony resistant Leishmania donovani BHU575 promastigotes recombinant topoisomerase I assessed as stabilization of cleavage complex at 5 to 50 uM measured after 30 mins. The conditions noted are these: dose 5-50 µM.
In data set [21] the test system is Leishmania donovani. Nature of the data set: Antileishmanial activity against Leishmania donovani Ag83 promastigotes infected in BALB/c mouse assessed as reduction of amastigote burden in spleen treated after 3 weeks of infection at 5 to 10 mg/kg, ip twice a week for 3 weeks by Giemsa staining stamp-smear based limiting dilution assay. It is filed as functional, organism-based. The conditions noted are these: dose 5-10 mg/kg.

For data set [22], the system named is Leishmania donovani. Put plainly: Induction of cell cycle arrest in Leishmania donovani Ag83 promastigotes assessed as decrease in accumulation of cells in G0/G1 phase at 5 uM measured after 12 hrs by PI staining based flow cytometry (reference value: 65.1%). The data set is classed as functional. The arrangement: scale not given: the % may be the effect or the level left.

The subject of data set [23] is Leishmania donovani. Nature of the data set: Induction of cell cycle arrest in Leishmania donovani Ag83 promastigotes assessed as decrease in accumulation of cells in S phase at 5 uM measured after 24 hrs by PI staining based flow cytometry (reference value: 18.1%). On the set-up: scale not given: the % may be the effect or the level left. The data set is classed as functional.

Data set [24] concerns Leishmania donovani. Put plainly: Induction of apoptosis in Leishmania donovani Ag83 promastigotes assessed as early apoptotic cells measured at 5 uM after 24 hrs by Annexin V-FITC/PI staining based flow cytometric analysis (reference value: 0.00%). The data set is classed as functional.

As for `COc1cc(-c2nc3ccccc3c3nc4ccccn4c23)cc(OC)c1OC`, the inhibition – broadly, the percentage by which the read-out fell short of the control – in data set [1] was “inactive”. Besides, the values for the inhibition result in [2] and in [17] were “Dose-Dependent Effect” and 85%, respectively. Besides, the IC50 (commonly the concentration needed to halve the response being measured) on DNA topoisomerase I [3] came out at 8.75 µM; at DNA topoisomerase I [7], 6.5 µM; at DNA topoisomerase I [14], 3.75 µM. Further, the Activity in the data set with Leishmania donovani [4] was 13.6%; in the data set on Leishmania donovani [5], 38%; in the data set with Leishmania donovani [6] it was 60%; in [11], “Non-Toxic”; in the data set on Leishmania donovani [15], 11.4%; with Leishmania donovani [16] it was 27.5%. The Activity stood at 40.7% in the data set with Leishmania donovani [22], 31.5% with Leishmania donovani [23] and 4.9% in the data set with Leishmania donovani [24]. The “fold change (FC)” value in the data set with Leishmania donovani [8] was found to be 5.5. Also, in data set [9], the result was inactive. Besides, the outcome (in the data set on Leishmania donovani [10]; in the data set on Leishmania donovani [12]; with Leishmania donovani [13]; in the data set with Leishmania donovani [18]; in data set [19]; in [20]) was Active. In addition, in the data set on Leishmania donovani [21], the outcome was Active.
